Molecular target: T1, mouse SGLT4 (Mus musculus, UniProt Q8VDT1)
T1 construct: expressed in transfected cells; host or cells: HEK293T
T1 sequence (Q8VDT1 1-685): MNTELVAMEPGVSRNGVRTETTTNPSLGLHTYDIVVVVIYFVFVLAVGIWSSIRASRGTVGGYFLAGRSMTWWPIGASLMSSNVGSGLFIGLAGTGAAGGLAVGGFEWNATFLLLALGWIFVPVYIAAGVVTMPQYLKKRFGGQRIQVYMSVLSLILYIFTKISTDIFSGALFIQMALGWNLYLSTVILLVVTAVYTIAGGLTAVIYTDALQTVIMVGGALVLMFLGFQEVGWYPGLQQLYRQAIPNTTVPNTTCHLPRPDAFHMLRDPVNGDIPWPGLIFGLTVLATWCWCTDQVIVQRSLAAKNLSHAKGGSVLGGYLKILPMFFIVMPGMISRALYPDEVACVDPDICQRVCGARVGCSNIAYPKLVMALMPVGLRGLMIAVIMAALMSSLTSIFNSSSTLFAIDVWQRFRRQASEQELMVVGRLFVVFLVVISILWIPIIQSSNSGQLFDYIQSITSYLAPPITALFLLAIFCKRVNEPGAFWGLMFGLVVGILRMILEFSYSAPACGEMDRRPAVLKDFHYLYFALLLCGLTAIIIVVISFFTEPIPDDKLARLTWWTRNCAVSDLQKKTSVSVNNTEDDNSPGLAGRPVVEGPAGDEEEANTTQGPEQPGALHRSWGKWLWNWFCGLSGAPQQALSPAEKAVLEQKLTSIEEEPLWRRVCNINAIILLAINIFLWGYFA
Assay: Radioactive uptake assay (saturation kinetics) in HEK293T cells expressing mouse SGLT4
Type: cell-based
Protocol: For a typical transporter experiment we proceeded as follows. […] To minimize cell loss during the various washing steps in the radioactive uptake experiments, the wells where the cells were seeded were previously coated with poly- D-lysine, which improved their adhesion to the plastic surface of the wells. For this, each well of the 24-well plates was treated with 200 µl of a 0.01% poly-L-lysine solution for 10 min, washed 3 times with 1 ml of sterilized water and left to dry for 2 h. Only then could the 24-well plates be seeded with the appropriate cell lines and cultured overnight at 37 °C in 5% CO2.
On day two, the radioactive uptake assay could be performed. The cell culture media was removed by aspiration and cells were incubated for 20 min at 37 °C and 5% CO2 with a basal medium (10 mM HEPES, pH 7.4, 1 mM CaCl2, 1 mM MgCl2, 2 mM KCl) containing 140 mM choline chloride to deplete intracellular […] ions. This was subsequently replaced with the uptake medium (basal medium + 140 mM NaCl, 25 μM cytochalasin B, 1 mg/ml BSA) containing either radioactive U-[^14C]-mannose (15,000 cpm/well) or 2-[^3H]-1,5-AG (30,000 cpm/well) and respectively, non-radioactive mannose or 1,5-AG, at the required concentration in the experiment. Importantly, when measuring the transport of mannose, the uptake media also contained 0.5 mM glucose. This resulted from the need to reduce the background transport of mannose in control HEK293T cells in order to optimize the transport assay for this sugar in our model cell lines. Consequently, after testing various inhibitors (Supplementary Fig. 1), 0.5 mM glucose + 25 µM cytochalasin B appeared as the best combination to decrease efficiently the endogenous transport of mannose in control cells without affecting the transport of mannose in model cell lines overexpressing SGLT4 and SGLT5. […]
Once the uptake medium was added to the cells, the plates were incubated at 37 °C in 5% CO2 during the required time. […] In each experiment, the transport activities were calculated after subtracting a “blank” value, corresponding to the radioactivity in the appropriate control cells (HEK293T cells that were stably or transiently transfected with one of the parent plasmids pEF6/MycHisA, pEF6HisB, pUB82 or pUB83 with no inserted cDNA) that were analyzed in parallel. […]
Supplementary Fig. 4: Transport activities for 1,5-anhydroglucitol and mannose of recombinant mouse SGLT4 and SGLT5 isoforms measured in HEK293T cells.
Transport was measured in 24 well plates with 0.6x10^6 cells during 30 mins at 37°C in 5% CO2 in the presence of the indicated concentrations of 2-[1H+3H]-1,5-AG for both mSGLT4 (A) and mSGLT5 (B) and U-[12C+14C]-mannose (C) for mSGLT4. […]

SMILES | mSGLT4 Vmax (30 min, Supplementary Fig. 4) | Km (30 min, Supplementary Fig. 4, read-out: mSGLT4 Km) | Km of mouse SGLT4 lower for mannose than for 1,5-AG (mannose versus 1,5-AG)
OC[C@H]1OC[C@H](O)[C@@H](O)[C@@H]1O [1,5-AG, 1,5-anhydroglucitol] | 152 pmol/min/100 000 cells | > 5 mM | 
OC[C@H]1OC(O)[C@@H](O)[C@@H](O)[C@@H]1O (stereo partly shown) [Mannose, mannose] | 29 pmol/min/100 000 cells |  | 25 fold
